The values that follow come from patent publication US9493464B2, “Wee1 degradation inhibitors” (The Scripps Research Institute, priority 2012, dated 2016).

Experiment [1] deals with K328M-Wee1-luciferase. The experiment in a line: Wee1-luciferase assay (stabilization of K328M-Wee1-luciferase). Conditions: HeLa cells; result in words. The format is cell-based. An excerpt: Steady-state level of K328M-Wee1-Luciferase (K328M-Wee1-Luc) was divided by Luciferase level (Luc) and plotted.
(§1) Similar assays have previously been described; PubChem AID 1807.

Experiment [2] has as its system cerebellar granule cell progenitors (GCPs). The experiment in a line: In vitro proliferation of cerebellar granule cell progenitors (3H-thymidine uptake). To be noted: 24 hours; result in words. Type of experiment: cell-based, mouse. How it is done:
GCPs were incubated with DMSO, 5 μM D4476 (known CK1δ and CK1ε inhibitor), or 50 μM D4476 and processed for ^3H-thymidine incorporation after 24 hours. A representative experiment performed in triplicate is shown.

The test system of experiment [3] is Luciferase. The experiment in a line: Luciferase alone control (PGL3 vector). The format is cell-based. Conditions: HeLa cells; result in words. How it is done: The percentage of signal relative to the proteasome inhibitor MG132 is shown. […] A Western blot is shown of endogenous Wee1 or Skp1 (loading control) of HeLa cells incubated with 5 μM of indicated compounds for 24 hours. […] The 0 time point was set to 100%. […] The extent of degradation was measured as in FIG. D.
5 μM of indicated compounds were incubated with K328M-Wee1-Luciferase or Luciferase expressing HeLa cells and the extent of stabilization measured after adding Brite-lite. MG132 was used as a positive control.
as §1

For experiment [4], the target named is T1, FLT3 (Homo sapiens, UniProt P36888).
T1 construct: Reaction Biology Corporation (contract assay)
T1 sequence (P36888 27-993): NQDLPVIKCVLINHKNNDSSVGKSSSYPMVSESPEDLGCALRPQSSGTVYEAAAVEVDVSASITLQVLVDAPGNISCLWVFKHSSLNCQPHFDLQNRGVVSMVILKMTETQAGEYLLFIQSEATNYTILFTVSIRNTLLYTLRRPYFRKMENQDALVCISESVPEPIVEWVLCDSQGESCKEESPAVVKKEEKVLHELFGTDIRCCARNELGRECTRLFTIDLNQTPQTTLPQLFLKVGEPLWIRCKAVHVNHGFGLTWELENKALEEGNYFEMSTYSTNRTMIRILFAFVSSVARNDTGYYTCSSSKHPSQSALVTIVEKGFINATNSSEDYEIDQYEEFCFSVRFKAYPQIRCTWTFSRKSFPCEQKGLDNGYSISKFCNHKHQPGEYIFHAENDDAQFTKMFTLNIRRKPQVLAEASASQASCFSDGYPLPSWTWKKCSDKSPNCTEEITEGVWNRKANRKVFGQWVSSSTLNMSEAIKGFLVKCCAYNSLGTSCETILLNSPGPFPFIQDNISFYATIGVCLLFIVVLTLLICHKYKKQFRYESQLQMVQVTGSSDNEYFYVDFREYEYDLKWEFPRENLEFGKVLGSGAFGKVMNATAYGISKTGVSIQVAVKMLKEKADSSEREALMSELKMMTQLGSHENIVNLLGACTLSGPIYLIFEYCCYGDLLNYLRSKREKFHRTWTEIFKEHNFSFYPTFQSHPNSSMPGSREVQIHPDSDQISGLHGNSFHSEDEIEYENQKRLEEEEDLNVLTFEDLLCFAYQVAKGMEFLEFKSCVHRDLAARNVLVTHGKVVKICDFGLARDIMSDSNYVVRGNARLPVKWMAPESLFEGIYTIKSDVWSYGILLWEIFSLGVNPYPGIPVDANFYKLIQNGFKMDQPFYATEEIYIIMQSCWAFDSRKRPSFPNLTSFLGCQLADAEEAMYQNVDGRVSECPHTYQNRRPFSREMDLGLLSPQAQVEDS
The experiment in a line: In vitro kinase assay, FLT3 (Reaction Biology Corporation). The format is biochemical. Conditions: determined by Reaction Biology Corporation; read-out: IC50 FLT3. As to the method:
(§2) Compounds were tested in 10-dose IC50 mode with 3-fold serial dilution starting at 50 μM. […] Reactions were carried out at 10 μM ATP. Average and standard deviations of reactions carried out in triplicate are shown.
(§3) In vitro kinase assay to detect CK1 or FLT3 activity: CK1 and FLT3 assays as well as complete kinase profile of 296 kinases was performed by Reaction Biology Corporation. For FLT3 20 μM final Abltide was used, sequence: [[…]]. For CK1 (all isoforms) 20 μM CK1 tide was used, sequence: [KRRRAL[pS]VASLPGL] in a standard kinase assay with ^32P-ATP and purified kinase. Incorporation of ^32P-ATP into the peptide was measured after a filter-binding assay. In-house CK1d inhibition assays were performed using a standard homogenous time-resolved fluorescence resonance energy transfer (TR-FRET) format in 50 mM Hepes, pH 7.0, 2.5 mM MgCl2, 0.1 mg/ml bovine serum albumin, 1 mM DL-dithiothreitol, 0.01% Triton X-100 (all from Sigma-Aldrich). Briefly, the CK1δ substrate (DEKTDDE, containing CK1 consensus sequence; 4 μL of a 500 nM stock solution) is labeled with a small Ulight acceptor dye (PerkinElmer). In the presence of 10 μL of 10 nM CK1δ, the Ulight peptide is phosphorylated at a single amino acid that is specifically recognized by a europium chelate (Eu)-labeled phosphospecific antibody. Assays were performed in the presence of 2 μL of compound at different (measured) concentrations, and reactions were stopped by adding 10 μL of 4 nM Eu-anti-p-Topo-IIa (PerkinElmer) in Lance Detection Buffer (Perkin Elmer). Upon excitation of the Eu-labeled antibody, energy is transferred to the acceptor dye resulting in the emission of detected light at 665 nm.

For experiment [5], the target named is CK1δ (Homo sapiens, UniProt P48730). The experiment in a line: In vitro kinase assay, CK1d, 32P-ATP filter binding (Reaction Biology Corporation). The format is biochemical. Conditions: footnote a: determined by Reaction Biology Corporation; read-out: IC50 CK1d. As to the method:
as §2, §3

The subject of experiment [6] is A498 (renal). The experiment in a line: NCI Dose Growth Inhibition assay (NCI-60). The format is cell-based. To be noted: Homo sapiens; A498 (renal); read-out: GI50. How it is done: (§4) Table 3, below, illustrates the activity of some of the compounds of the present invention in the National Cancer Institute's Dose Growth Inhibition assay against several human tumor cell lines selected from the NCI-60 panel.
(§5) NCI-60 Cancer Cell Line Screening was performed by the National Cancer Institute, using the procedures described on their website (http://dtp.nci.nih.gov/branches/btb/ivelsp.html)

The test system of experiment [7] is COLO 205 (colon). The experiment in a line: NCI Dose Growth Inhibition assay (NCI-60). Type of experiment: cell-based. To be noted: Homo sapiens; COLO 205 (colon); read-out: GI50. As to the method:
as §4, §5

Experiment [8] deals with MDA-MB-468 (breast). The experiment in a line: NCI Dose Growth Inhibition assay (NCI-60). Type of experiment: cell-based. To be noted: Homo sapiens; MDA-MB-468 (breast); read-out: GI50. As to the method:
as §4, §5

Experiment [9] relates to RXF393 (renal). The experiment in a line: NCI Dose Growth Inhibition assay (NCI-60). The format is cell-based. To be noted: Homo sapiens, RXF 393; RXF393 (renal); read-out: GI50. As to the method:
as §4, §5

The subject of experiment [10] is SNB-75 (CNS). The experiment in a line: NCI Dose Growth Inhibition assay (NCI-60). The format is cell-based. Conditions: Homo sapiens; SNB-75 (CNS); read-out: GI50. As to the method:
as §4, §5

Experiment [11] relates to UACC-62 (melanoma). The experiment in a line: NCI Dose Growth Inhibition assay (NCI-60). Type of experiment: cell-based. Conditions: Homo sapiens; UACC-62 (melanoma); read-out: GI50. How it is done:
as §4, §5

Sequence of CK1δ (P48730 whole entry): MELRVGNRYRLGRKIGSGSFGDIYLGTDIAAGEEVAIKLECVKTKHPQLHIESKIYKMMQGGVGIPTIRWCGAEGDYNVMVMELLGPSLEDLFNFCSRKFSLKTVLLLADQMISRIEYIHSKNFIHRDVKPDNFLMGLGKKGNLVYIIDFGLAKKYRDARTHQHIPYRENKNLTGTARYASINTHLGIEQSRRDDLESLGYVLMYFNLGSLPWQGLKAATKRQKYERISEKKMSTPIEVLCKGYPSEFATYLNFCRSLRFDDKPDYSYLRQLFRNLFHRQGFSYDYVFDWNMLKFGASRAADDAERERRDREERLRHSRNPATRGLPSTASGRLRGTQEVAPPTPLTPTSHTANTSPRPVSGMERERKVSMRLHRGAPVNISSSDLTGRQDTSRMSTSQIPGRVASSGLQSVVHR

On to `NC(=O)c1ccc(-c2nc(-c3ccc4c(c3)OCCO4)c(-c3ccccn3)[nH]2)cc1` [Compound D4476, reference compound], for which the “stabilization of K328M-Wee1-luciferase” value in experiment [1] is “stabilizes K328M-Wee1-luciferase”. For the same compound, in [2], the “inhibition of GCP proliferation (3H-thymidine)” value is given as “inhibited GCP proliferation”. Also, in experiment [3], the Luciferase levels entry is given as “does not affect Luciferase levels”.

For the compound `COc1ccc2[nH]c(CNc3nc(N4CCNCC4)nc4c3ncn4-c3ccoc3)nc2c1` [SR-2891], the values for the IC50 in [4] and in experiment [5] were 782 nM and 11 nM, respectively. In addition, the GI50 in experiment [6] was 321 nM; in experiment [7], 30 nM; in experiment [8], less than 10 nM; in [9], 49 nM; in experiment [10] it was 24 nM; in experiment [11] it was 174 nM.

What is called IC50 is the concentration at which inhibition is half-maximal. Usually GI50 stands for the concentration that inhibits growth by half.
